Experimental data from ChEMBL document CHEMBL4507266, “Data for DCP probe BAY-784” (2021).

Key:
[1] = biological target: Ribosomal protein S6 kinase alpha-2 (Homo sapiens) (UniProt Q15349); conditions: Compound concentration 1000.0 nM
[2] = biological target: Serine/threonine-protein kinase TAO3 (Homo sapiens) (UniProt Q9H2K8); conditions: Compound concentration 1000.0 nM
[3] = tested on: Mast/stem cell growth factor receptor Kit (Homo sapiens), P10721 [V559D,T670I]; conditions: Compound concentration 1000.0 nM
[4] = biological target: SRSF protein kinase 2 (Homo sapiens) (UniProt P78362); conditions: Compound concentration 1000.0 nM
[5] = biological target: Wee1-like protein kinase (Homo sapiens) (UniProt P30291); conditions: Compound concentration 1000.0 nM
[6] = biological target: Interleukin-1 receptor-associated kinase 3 (Homo sapiens) (UniProt Q9Y616); conditions: Compound concentration 1000.0 nM
[7] = biological target: Mitogen-activated protein kinase kinase kinase 4 (Homo sapiens) (UniProt Q9Y6R4); conditions: Compound concentration 1000.0 nM
[8] = biological target: Maternal embryonic leucine zipper kinase (Homo sapiens) (UniProt Q14680); conditions: Compound concentration 1000.0 nM
[9] = biological target: Dual specificity mitogen-activated protein kinase kinase 3 (Homo sapiens) (UniProt P46734); conditions: Compound concentration 1000.0 nM
[10] = biological target: Cyclin-dependent kinase 8 (Homo sapiens) (UniProt P49336); conditions: Compound concentration 1000.0 nM
[11] = biological target: Hepatocyte growth factor receptor (Homo sapiens) (UniProt P08581); conditions: Compound concentration 1000.0 nM
[12] = biological target: Macrophage-stimulating protein receptor (Homo sapiens) (UniProt Q04912); conditions: Compound concentration 1000.0 nM
[13] = biological target: G protein-coupled receptor kinase 4 (Homo sapiens) (UniProt P32298); conditions: Compound concentration 1000.0 nM
[14] = biological target: Receptor-type tyrosine-protein kinase FLT3 (Homo sapiens) (UniProt P36888); conditions: Compound concentration 1000.0 nM
[15] = biological target: Megakaryocyte-associated tyrosine-protein kinase (Homo sapiens) (UniProt P42679); conditions: Compound concentration 1000.0 nM
[16] = biological target: Serine/threonine-protein kinase DCLK3 (Homo sapiens) (UniProt Q9C098); conditions: Compound concentration 1000.0 nM
[17] = biological target: Tyrosine-protein kinase ZAP-70 (Homo sapiens) (UniProt P43403); conditions: Compound concentration 1000.0 nM
[18] = biological target: Mast/stem cell growth factor receptor Kit (Homo sapiens) (UniProt P10721); conditions: Compound concentration 1000.0 nM
[19] = biological target: TGF-beta receptor type-1 (Homo sapiens) (UniProt P36897); conditions: Compound concentration 1000.0 nM
[20] = biological target: Serine/threonine-protein kinase 17B (Homo sapiens) (UniProt O94768); conditions: Compound concentration 1000.0 nM
[21] = biological target: Phosphatidylinositol 4,5-bisphosphate 3-kinase catalytic subunit delta isoform (Homo sapiens) (UniProt O00329); conditions: Compound concentration 1000.0 nM
[22] = biological target: Sodium-dependent noradrenaline transporter (Homo sapiens) (UniProt P23975); conditions: Compound concentration 10.0 uM
[23] = biological target: Insulin receptor-related protein (Homo sapiens) (UniProt P14616); conditions: Compound concentration 1000.0 nM
[24] = tested on: Mast/stem cell growth factor receptor Kit (Homo sapiens), P10721 [L576P]; conditions: Compound concentration 1000.0 nM
[25] = biological target: Tyrosine-protein kinase Blk (Homo sapiens) (UniProt P51451); conditions: Compound concentration 1000.0 nM
[26] = biological target: Mitogen-activated protein kinase 6 (Homo sapiens) (UniProt Q16659); conditions: Compound concentration 1000.0 nM
[27] = biological target: Cyclin-dependent kinase 9 (Homo sapiens) (UniProt P50750); conditions: Compound concentration 1000.0 nM
[28] = biological target: D(3) dopamine receptor (Homo sapiens) (UniProt P35462); conditions: Compound concentration 10.0 uM
[29] = biological target: Protein-tyrosine kinase 6 (Homo sapiens) (UniProt Q13882); conditions: Compound concentration 1000.0 nM
[30] = biological target: Homeodomain-interacting protein kinase 2 (Homo sapiens) (UniProt Q9H2X6); conditions: Compound concentration 1000.0 nM
[31] = biological target: Serine/threonine-protein kinase N1 (Homo sapiens) (UniProt Q16512); conditions: Compound concentration 1000.0 nM
[32] = biological target: Mitogen-activated protein kinase kinase kinase 10 (Homo sapiens) (UniProt Q02779); conditions: Compound concentration 1000.0 nM
[33] = biological target: Fibroblast growth factor receptor 1 (Homo sapiens) (UniProt P11362); conditions: Compound concentration 1000.0 nM
[34] = biological target: Serine/threonine-protein kinase MRCK beta (Homo sapiens) (UniProt Q9Y5S2); conditions: Compound concentration 1000.0 nM
[35] = biological target: Serine/threonine-protein kinase WNK2 (Homo sapiens) (UniProt Q9Y3S1); conditions: Compound concentration 1000.0 nM
[36] = biological target: Protein kinase C delta type (Homo sapiens) (UniProt Q05655); conditions: Compound concentration 1000.0 nM
[37] = biological target: Tyrosine-protein kinase receptor UFO (Homo sapiens) (UniProt P30530); conditions: Compound concentration 1000.0 nM
[38] = biological target: Cyclin-dependent kinase 5 (Homo sapiens) (UniProt Q00535); conditions: Compound concentration 1000.0 nM
[39] = biological target: 5-hydroxytryptamine receptor 2B (Homo sapiens) (UniProt P41595); conditions: Compound concentration 10.0 uM
[40] = biological target: Aurora kinase A (Homo sapiens) (UniProt O14965); conditions: Compound concentration 1000.0 nM
[41] = biological target: Macrophage colony-stimulating factor 1 receptor (Homo sapiens) (UniProt P07333); conditions: Compound concentration 1000.0 nM
[42] = tested on: Phosphatidylinositol 4,5-bisphosphate 3-kinase catalytic subunit alpha isoform (Homo sapiens), P42336 [M1043I]; conditions: Compound concentration 1000.0 nM
[43] = biological target: Ribosomal protein S6 kinase alpha-6 (Homo sapiens) (UniProt Q9UK32); conditions: Compound concentration 1000.0 nM
[44] = biological target: Serine/threonine-protein kinase 17A (Homo sapiens) (UniProt Q9UEE5); conditions: Compound concentration 1000.0 nM
[45] = biological target: Serine/threonine-protein kinase PLK3 (Homo sapiens) (UniProt Q9H4B4); conditions: Compound concentration 1000.0 nM

Phosphatidylinositol 4,5-bisphosphate 3-kinase catalytic subunit alpha isoform (Homo sapiens), P42336 [M1043I], sequence (P42336 whole entry M1043I, canonical isoform): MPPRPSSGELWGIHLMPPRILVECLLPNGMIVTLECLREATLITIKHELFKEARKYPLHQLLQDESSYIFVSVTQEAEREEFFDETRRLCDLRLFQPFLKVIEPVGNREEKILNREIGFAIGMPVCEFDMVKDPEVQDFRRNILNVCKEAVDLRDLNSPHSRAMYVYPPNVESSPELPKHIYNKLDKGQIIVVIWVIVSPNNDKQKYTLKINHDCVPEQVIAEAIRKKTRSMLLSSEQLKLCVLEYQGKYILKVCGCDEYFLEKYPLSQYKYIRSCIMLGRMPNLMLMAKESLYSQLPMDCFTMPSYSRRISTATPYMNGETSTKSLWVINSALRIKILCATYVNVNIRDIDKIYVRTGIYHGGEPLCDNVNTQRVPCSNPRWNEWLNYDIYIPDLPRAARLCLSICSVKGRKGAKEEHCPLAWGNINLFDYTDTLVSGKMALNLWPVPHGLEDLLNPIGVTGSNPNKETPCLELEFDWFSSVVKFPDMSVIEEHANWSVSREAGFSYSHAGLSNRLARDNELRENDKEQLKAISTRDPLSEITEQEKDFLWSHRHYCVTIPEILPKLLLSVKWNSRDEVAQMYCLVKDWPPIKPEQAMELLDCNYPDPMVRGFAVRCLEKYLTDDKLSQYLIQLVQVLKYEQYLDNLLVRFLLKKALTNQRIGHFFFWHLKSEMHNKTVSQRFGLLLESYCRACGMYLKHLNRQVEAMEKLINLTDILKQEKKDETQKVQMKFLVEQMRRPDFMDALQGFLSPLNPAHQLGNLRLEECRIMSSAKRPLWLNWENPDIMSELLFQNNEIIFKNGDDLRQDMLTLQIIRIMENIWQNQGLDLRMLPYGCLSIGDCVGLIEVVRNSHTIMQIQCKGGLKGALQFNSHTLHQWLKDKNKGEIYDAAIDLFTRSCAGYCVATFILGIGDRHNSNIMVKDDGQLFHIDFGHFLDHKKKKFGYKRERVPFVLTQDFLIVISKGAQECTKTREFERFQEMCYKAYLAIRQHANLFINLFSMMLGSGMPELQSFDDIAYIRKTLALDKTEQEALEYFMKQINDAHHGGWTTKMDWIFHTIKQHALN
Ribosomal protein S6 kinase alpha-2 (Homo sapiens), sequence (Q15349 whole entry): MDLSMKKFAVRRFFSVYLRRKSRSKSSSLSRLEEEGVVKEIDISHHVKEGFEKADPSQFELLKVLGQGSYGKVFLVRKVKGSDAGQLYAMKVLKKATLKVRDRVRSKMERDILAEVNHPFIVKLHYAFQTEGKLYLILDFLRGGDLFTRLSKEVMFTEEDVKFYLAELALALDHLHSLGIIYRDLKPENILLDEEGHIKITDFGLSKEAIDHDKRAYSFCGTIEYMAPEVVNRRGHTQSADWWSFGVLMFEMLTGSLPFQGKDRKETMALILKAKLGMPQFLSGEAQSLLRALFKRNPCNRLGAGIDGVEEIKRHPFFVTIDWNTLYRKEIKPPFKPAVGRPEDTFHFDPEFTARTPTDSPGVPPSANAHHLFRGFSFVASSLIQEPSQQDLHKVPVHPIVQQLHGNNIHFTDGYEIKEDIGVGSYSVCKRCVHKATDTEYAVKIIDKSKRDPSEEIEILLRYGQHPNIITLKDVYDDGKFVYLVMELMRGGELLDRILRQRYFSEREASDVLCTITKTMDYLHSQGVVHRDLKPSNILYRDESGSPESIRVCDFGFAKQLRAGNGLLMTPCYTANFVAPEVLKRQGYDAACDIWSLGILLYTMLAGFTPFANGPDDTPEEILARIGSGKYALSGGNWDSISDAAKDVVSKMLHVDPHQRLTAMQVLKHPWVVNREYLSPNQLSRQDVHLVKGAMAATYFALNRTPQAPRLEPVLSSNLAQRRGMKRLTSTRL
Insulin receptor-related protein (Homo sapiens), sequence (P14616 27-742 limits assumed): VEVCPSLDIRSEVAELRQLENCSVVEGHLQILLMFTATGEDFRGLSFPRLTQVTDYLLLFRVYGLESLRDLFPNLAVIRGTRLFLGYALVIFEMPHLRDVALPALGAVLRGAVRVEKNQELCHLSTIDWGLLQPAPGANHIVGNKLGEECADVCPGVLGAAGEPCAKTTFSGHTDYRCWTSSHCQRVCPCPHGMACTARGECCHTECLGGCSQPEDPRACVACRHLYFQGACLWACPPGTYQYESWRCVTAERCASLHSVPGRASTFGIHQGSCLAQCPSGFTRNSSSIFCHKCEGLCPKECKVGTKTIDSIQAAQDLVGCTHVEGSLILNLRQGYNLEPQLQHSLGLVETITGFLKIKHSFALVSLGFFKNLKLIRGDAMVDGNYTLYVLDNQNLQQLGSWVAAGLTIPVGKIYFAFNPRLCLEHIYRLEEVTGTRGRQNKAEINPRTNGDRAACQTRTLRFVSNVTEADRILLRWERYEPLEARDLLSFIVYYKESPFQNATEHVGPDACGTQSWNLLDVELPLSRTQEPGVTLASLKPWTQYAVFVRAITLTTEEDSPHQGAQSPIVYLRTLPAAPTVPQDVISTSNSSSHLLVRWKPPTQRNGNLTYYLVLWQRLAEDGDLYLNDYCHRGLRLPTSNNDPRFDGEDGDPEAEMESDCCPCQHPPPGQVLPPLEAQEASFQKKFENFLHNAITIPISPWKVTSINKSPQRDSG
Insulin receptor-related protein (Homo sapiens), sequence (P14616 747-1297 limits assumed): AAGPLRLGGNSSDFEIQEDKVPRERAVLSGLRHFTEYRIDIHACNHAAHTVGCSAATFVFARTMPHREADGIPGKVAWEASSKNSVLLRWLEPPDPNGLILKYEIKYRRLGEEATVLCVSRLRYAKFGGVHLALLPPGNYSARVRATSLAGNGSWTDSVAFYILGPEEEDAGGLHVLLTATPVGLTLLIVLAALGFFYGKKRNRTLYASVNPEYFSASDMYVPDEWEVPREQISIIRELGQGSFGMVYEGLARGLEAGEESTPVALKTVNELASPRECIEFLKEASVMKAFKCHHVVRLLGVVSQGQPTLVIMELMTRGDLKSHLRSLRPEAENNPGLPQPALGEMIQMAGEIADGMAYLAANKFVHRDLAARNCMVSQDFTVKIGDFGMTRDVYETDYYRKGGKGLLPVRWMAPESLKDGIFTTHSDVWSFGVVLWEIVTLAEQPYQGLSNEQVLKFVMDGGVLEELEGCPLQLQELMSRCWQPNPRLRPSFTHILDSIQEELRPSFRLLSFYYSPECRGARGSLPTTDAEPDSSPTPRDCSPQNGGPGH
Wee1-like protein kinase (Homo sapiens), sequence (P30291 whole entry, looked up): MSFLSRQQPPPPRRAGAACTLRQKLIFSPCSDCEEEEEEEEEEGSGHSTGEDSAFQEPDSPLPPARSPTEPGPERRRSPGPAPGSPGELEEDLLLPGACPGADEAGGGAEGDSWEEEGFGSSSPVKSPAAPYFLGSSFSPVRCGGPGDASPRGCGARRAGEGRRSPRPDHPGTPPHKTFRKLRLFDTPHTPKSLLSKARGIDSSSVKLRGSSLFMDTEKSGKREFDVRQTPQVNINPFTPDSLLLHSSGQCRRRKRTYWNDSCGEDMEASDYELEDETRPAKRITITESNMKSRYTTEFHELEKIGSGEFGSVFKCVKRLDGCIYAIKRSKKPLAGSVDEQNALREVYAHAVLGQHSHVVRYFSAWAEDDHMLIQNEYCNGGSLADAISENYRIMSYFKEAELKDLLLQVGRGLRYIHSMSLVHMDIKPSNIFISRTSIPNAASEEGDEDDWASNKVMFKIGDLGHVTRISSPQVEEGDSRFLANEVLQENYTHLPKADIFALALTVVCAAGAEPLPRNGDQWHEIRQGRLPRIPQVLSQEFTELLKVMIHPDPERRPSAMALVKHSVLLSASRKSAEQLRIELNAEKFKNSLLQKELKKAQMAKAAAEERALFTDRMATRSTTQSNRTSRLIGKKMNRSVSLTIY
Megakaryocyte-associated tyrosine-protein kinase (Homo sapiens), sequence (P42679 whole entry): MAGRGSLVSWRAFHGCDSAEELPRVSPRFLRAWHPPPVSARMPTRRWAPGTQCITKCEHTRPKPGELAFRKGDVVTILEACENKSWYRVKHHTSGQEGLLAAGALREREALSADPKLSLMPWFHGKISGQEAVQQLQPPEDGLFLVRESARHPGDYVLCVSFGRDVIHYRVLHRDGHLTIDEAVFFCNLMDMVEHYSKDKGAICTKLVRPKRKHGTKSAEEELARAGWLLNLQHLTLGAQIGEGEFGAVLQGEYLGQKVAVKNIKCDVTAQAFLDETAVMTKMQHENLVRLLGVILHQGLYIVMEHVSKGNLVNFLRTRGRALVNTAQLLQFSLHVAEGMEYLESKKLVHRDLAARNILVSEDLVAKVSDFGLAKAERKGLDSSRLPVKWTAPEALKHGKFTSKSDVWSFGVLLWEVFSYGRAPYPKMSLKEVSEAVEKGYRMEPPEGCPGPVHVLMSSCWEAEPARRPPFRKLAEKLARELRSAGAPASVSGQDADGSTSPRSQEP
Dual specificity mitogen-activated protein kinase kinase 3 (Homo sapiens), sequence (P46734 whole entry): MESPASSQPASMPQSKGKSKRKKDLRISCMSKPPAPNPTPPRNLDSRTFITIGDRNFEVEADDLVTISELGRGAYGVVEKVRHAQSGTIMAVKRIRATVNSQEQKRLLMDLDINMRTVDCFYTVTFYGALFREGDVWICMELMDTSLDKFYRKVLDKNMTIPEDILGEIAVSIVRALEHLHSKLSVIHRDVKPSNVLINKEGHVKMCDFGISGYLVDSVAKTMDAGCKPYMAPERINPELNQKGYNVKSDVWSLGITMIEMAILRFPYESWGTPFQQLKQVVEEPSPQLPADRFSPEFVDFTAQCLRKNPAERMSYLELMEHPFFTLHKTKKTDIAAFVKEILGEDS
Serine/threonine-protein kinase 17B (Homo sapiens), sequence (O94768 whole entry, canonical isoform): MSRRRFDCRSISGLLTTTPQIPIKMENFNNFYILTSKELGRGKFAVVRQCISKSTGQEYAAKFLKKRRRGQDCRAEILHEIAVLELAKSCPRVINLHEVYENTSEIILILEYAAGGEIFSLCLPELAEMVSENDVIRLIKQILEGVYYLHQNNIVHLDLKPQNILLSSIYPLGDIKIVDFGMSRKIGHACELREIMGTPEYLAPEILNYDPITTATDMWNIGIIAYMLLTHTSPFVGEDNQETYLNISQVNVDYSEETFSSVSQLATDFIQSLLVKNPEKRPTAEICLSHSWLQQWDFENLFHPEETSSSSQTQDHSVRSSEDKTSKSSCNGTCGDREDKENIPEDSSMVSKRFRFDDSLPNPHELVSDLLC

Which residual activity [1] does the source give for `O=C(NCc1ncc(C(F)(F)F)cc1Cl)c1ccc2c(c1)C1(CCS(=O)(=O)CC1)[C@H](C1CC1)N2S(=O)(=O)c1ccc(F)cc1` [BAY-784] here?
The residual activity was 99%.

What about the residual activity [2] of the same compound?
Its residual activity is 99%.

And the residual activity [3]?
Its residual activity is 100%.

And the residual activity [4]?
Its residual activity is 91%.

What about the residual activity [5] of the same compound?
Its residual activity is 82%.

And the residual activity [6]?
Its residual activity is 99%.

What about the residual activity [7] of the same compound?
The residual activity was 100%.

And the residual activity [8]?
The residual activity was 54%.

What about the residual activity [9] of the same compound?
Its residual activity is 71%.

What about the residual activity [10] of the same compound?
The residual activity was 80%.

And the residual activity [11]?
The residual activity was 100%.

What about the residual activity [12] of the same compound?
Its residual activity is 99%.

What about the residual activity [13] of the same compound?
The residual activity was 100%.

And the residual activity [14]?
Its residual activity is 100%.

And the residual activity [15]?
Its residual activity is 73%.

And the residual activity [16]?
The residual activity was 92%.

And the residual activity [17]?
The residual activity was 84%.

What about the residual activity [18] of the same compound?
Its residual activity is 76%.

And the residual activity [19]?
Its residual activity is 100%.

And the residual activity [20]?
Its residual activity is 85%.

What about the residual activity [21] of the same compound?
Its residual activity is 67%.

What about the inhibition [22] of the same compound?
Its inhibition is 1.03%.

And the residual activity [23]?
Its residual activity is 100%.

What about the residual activity [24] of the same compound?
Its residual activity is 100%.

What about the residual activity [25] of the same compound?
The residual activity was 78%.

What about the residual activity [26] of the same compound?
The residual activity was 87%.

What about the residual activity [27] of the same compound?
Its residual activity is 100%.

And the inhibition [28]?
Its inhibition is 9.45%.

And the residual activity [29]?
The residual activity was 100%.

And the residual activity [30]?
The residual activity was 81%.

And the residual activity [31]?
Its residual activity is 100%.

What about the residual activity [32] of the same compound?
The residual activity was 100%.

And the residual activity [33]?
Its residual activity is 49%.

What about the residual activity [34] of the same compound?
Its residual activity is 100%.

What about the residual activity [35] of the same compound?
The residual activity was 97%.

What about the residual activity [36] of the same compound?
Its residual activity is 100%.

What about the residual activity [37] of the same compound?
Its residual activity is 100%.

What about the residual activity [38] of the same compound?
Its residual activity is 0%.

What about the inhibition [39] of the same compound?
The inhibition was -2.53%.

And the residual activity [40]?
The residual activity was 97%.

What about the residual activity [41] of the same compound?
The residual activity was 100%.

What about the residual activity [42] of the same compound?
Its residual activity is 93%.

What about the residual activity [43] of the same compound?
The residual activity was 87%.

What about the residual activity [44] of the same compound?
The residual activity was 100%.

And the residual activity [45]?
Its residual activity is 92%.

What does the source list for `O=C(NCc1ncc(C(F)(F)F)cc1Cl)c1ccc2c(c1)C1(CCS(=O)(=O)CC1)[C@@H](C1CC1)N2S(=O)(=O)c1ccc(F)cc1` [BAY-786]?
residual activity [1]: 100%; residual activity [2]: 80%; residual activity [3]: 87%; residual activity [4]: 100%; residual activity [5]: 100%; residual activity [6]: 100%; residual activity [7]: 84%; residual activity [8]: 100%; residual activity [9]: 73%; residual activity [10]: 63%; residual activity [11]: 81%; residual activity [12]: 100%; residual activity [13]: 100%; residual activity [14]: 100%; residual activity [15]: 74%; residual activity [16]: 69%; residual activity [17]: 72%; residual activity [18]: 82%; residual activity [19]: 84%; residual activity [20]: 87%; residual activity [21]: 67%; inhibition [22]: 3.76%; residual activity [23]: 100%; residual activity [24]: 76%; residual activity [25]: 100%; residual activity [26]: 86%; residual activity [27]: 100%; inhibition [28]: 3.82%; residual activity [29]: 94%; residual activity [30]: 72%; residual activity [31]: 100%; residual activity [32]: 100%; residual activity [33]: 100%; residual activity [34]: 100%; residual activity [35]: 0%; residual activity [36]: 100%; residual activity [37]: 100%; residual activity [38]: 89%; inhibition [39]: -2.32%; residual activity [40]: 81%; residual activity [41]: 74%; residual activity [42]: 56%; residual activity [43]: 100%; residual activity [44]: 73%; residual activity [45]: 82%
